From patent publication US20220249440A1, “MUSCLE RE[…]” (SATO PHARMACEUTICAL CO., LTD., priority 2019, published 2022)

Key:
5-HT2B receptor = 5-HT2B receptor (Homo sapiens, UniProt P41595); conditions: cited literature: Br. J. Pharmacol. 128(1):13-20, 1999; J. Pharmacol. Exp. Ther. 347(3):645-59, 2013; cited from earlier work
[1] = tested on: muscle-damaged model animal (CTX administered to tibialis anterior muscle); test: Muscle regeneration in cardiotoxin (CTX) muscle-damaged model animal; area of regenerated single muscle fibers with central nuclei in tibialis anterior muscle; assay type: in vivo, C57BL/6 male mice; conditions: 10 μL intramuscular into tibialis anterior muscle once a day from day before CTX to 6 day after CTX; for increase in the mean muscle fiber area of regenerated muscle as compared with the Vehicle administration group: 7 days after CTX, P<0.0001; for histogram of the regenerated single-muscle fiber area vs Vehicle administration group: muscle collected 7 days after CTX
Method: Seven-week old C57BL/6 male mice (CLEA Japan, Inc.) were purchased, and used for experiment at the age of 8 weeks.
A model animal to which muscle damage had been caused by administration of snake venom cardiotoxin (CTX) was used. The muscle-damaged model animal has been widely used in studies on the regeneration from muscle damage.
Under the anesthesia with isoflurane, 50 μL of 10 μM CTX was administered to the tibialis anterior muscle of the right hindlimb of the mouse. After 7 days of the administration of CTX, the tibialis anterior muscle was collected by dissection, and supplied to the preparation of a muscle tissue section.
Immediately after the collection of the tibialis anterior muscle, the tibialis anterior muscle was immersed in isopentane cooled with liquid nitrogen and was rapidly frozen. The frozen muscle tissue was cut into slices each having a thickness of 10 μm by using a cryostat (Leica Biosystems), and the slice was attached onto an antistripping coated slide glass (Matsunami Glass Ind., Ltd).
A muscle tissue section was sufficiently air dried for 30 minutes under room temperature. After that, the muscle tissue section was fixed by immersing it in acetone cooled to −30° C. and treating at −30° C. for 20 minutes. The fixed section was air dried once and washed with PBS. Then the section was blocked by dropwisely adding a blocking reagent (Blocking One, NACALAI TESQUE, INC.) to the section and being subjected to the blocking treatment for 1 hour. Next, a primary antibody (Anti-Laminin-2 (α-2 Chain) antibody, Rat monoclonal (Sigma-Aldrich)) obtained by being diluted 500 times with the blocking reagent was added dropwise, and the reaction was conducted at overnight at 4° C. Since laminin to which a primary antibody binds is a protein expressed in all muscle cells, the primary antibody was used in this experiment in order to measure the area of individual muscle cells in a section. The muscle tissue section after the reaction with the primary antibody was washed with PBS, and then was reacted for 1 hour with a secondary antibody (CF 488A Goat Anti-Rat IgG (H+L) (Biotium)) obtained by being diluted 500 times with the blocking reagent. The secondary antibody that is an anti-rat antibody conjugated with a fluorescent dye binds to the primary antibody, and stains the laminin. The muscle tissue section after the reaction with the secondary antibody was washed with PBS, and sealed by using “[…] Hard⋅Set with DAPI” (Vector), and then the fluorescence observation was performed with an inverted microscope FSX100 (OLYMPUS). The “[…] Hard⋅Set with DAPI” was used for staining the central nucleus of muscle cells.
The muscle regeneration was evaluated on the basis of the image data taken from the fluorescence observation. In this experiment, muscle cells each having a central nucleus (single muscle fibers having central nuclei) were used as an indicator for regenerated muscle. After the image data was taken into image analysis software ImageJ (NIH), a muscle cell having a central nucleus was extracted. The cross-sectional area of the extracted individual cells was measured on the basis of the cell membrane stained with laminin. For the area measurement, “Analyze Particles” that is an add-in analysis program on ImageJ was used. The measurement results were shown as a distribution chart (histogram) of the area and number of regenerated single-muscle fibers, and as an average value of the cross-sectional areas of all the regenerated single muscle fibers (mean muscle fiber area).

[2] = 5 mM in PBS with 5% dimethyl sulfoxide

Sequence of 5-HT2B receptor (P41595 whole entry): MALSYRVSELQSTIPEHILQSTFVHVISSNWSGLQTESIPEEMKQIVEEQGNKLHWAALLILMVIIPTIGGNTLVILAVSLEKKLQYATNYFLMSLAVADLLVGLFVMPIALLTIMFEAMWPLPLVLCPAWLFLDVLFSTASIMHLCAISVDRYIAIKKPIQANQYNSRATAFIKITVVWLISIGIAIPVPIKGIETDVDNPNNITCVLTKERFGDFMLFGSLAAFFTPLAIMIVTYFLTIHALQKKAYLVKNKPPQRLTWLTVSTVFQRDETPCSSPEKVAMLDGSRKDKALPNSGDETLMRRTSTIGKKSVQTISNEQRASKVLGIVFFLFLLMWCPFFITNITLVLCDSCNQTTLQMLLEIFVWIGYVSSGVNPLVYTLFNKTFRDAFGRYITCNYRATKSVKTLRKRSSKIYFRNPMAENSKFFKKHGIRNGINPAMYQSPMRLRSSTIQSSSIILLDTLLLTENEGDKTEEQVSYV

| SMILES | 5-HT2B receptor agonist activity (known from literature) (5-HT2B receptor) | increase in the mean muscle fiber area of regenerated muscle as compared with the Vehicle administration group [1, 2] [%] | histogram of the regenerated single-muscle fiber area vs Vehicle administration group [1, 2] | increase in the mean muscle fiber area of regenerated muscle as compared with the Vehicle administration group ([1]; 10 mM in PBS) [%] | histogram of the regenerated single-muscle fiber area vs Vehicle administration group ([1]; 10 mM in PBS) |
| --- | --- | --- | --- | --- | --- |
| CC(N)Cc1c[nH]c2ccc(OCc3cccs3)cc12 (stereo not drawn) [BW723C86, 1-(5-(thiophen-2-ylmethoxy)-1H-indol-3-yl)propan-2-amine] | selective 5-HT2B receptor agonist | 9.5 | shifted to the right side | – | – |
| Cn1c2c(c3ccccc31)CCNCC2 [PNU 22394, 6-methyl-1,2,3,4,5,6-hexahydroazepino[4,5-b]indole] | 5-HT2B receptor agonist | – | – | 8.5 | shifted to the right side |
| CC(N)Cc1c[nH]c2ccc(O)cc12 (stereo not drawn) [α-methyl-5-HT, 3-(2-aminopropyl)-1H-indol-5-ol] | 5-HT2B receptor agonist | 23 | shifted to the right side | – | – |
